The source of these data is patent US20180188195A1, “SYSTEMS AND METHODS FOR MULTIPLEXED HEMOSTASIS TEST PANELS” (T2 Biosystems, Inc., priority 2015, published 2018).

Experiment [1] has as its system citrated whole blood. In words: T2In T2MR clotting time, intrinsic pathway activator (ellagic acid). Format: cell-based, human. From the text:
In another embodiment a coagulopathy panel is used with an intrinsic activator such as ellagic acid. The common range of clotting time is often between 100 and 120 seconds for normal blood. However, it can be 22-30 seconds, 30-44 seconds, 44-60 seconds, 60-80 seconds, 80-100 seconds, up to 2 times to 4 times the range of normal T2MR clotting times for the extrinsic activator. The abnormal clotting time ranges are above or below the normal range. The total range easily measured is 8-300 seconds though a measurement up to or beyond 1000 seconds could be performed with modified acquisition. If aprotinin is added in addition to intrinsic activator, clotting times can often be from 110.9-151.0 seconds in normal blood.
The general intrinsic activator protocol is as follows (T2In panel): an intrinsic activator solution was prepared by mixing tissue factor reagent with CaCl2. To 36.7 μL of citrated whole blood (warmed to approximately 37° C. for 3 minutes and mixed) was added 5 μL of the intrinsic activator solution (also been warmed to approximately 37° C. for one minute). The resulting solution was mixed and subjected to T2 measurements for 50 minutes. For a given sample, a clotting time measurement was typically obtained within 5 minutes. Some examples of activators are tissue factor with phospholipids and ellagic acid with phospholipid. The reagents were placed in a tube that was subsequently placed in the magnetic field. Citrated whole blood was added and mixed. The blood was diluted 50%. The T2MR of the sample was measured for 30 minutes.
The T2Ex or the T2In protocols were also used with the addition of aprotinin (T2Ex-A and T2In-A) respectively. For the intrinsic pathway measurement (T2In), intrinsic activator solution was prepared by mixing ellagic acid stock and CaCl2. For the intrinsic pathway measurement that includes aprotinin (T2In-A), add 41.7 μL of a 1 mg/mL stock of aprotinin to 1 mL intrinsic activator solution. 36.7 μL citrated whole blood that had been warmed to approximately 37° C. for three minutes was added and mixed. […] The sample was mixed and read in the T2reader. […]

The test system of experiment [2] is citrated whole blood. In words: T2In platelet activity and fibrinolysis measurement with tPA or aprotinin. Format: cell-based, human. As to conditions: ellagic acid with CaCl2; tPA 0, 2 or 4 nM or aprotinin control; 65 min. As for the experimental part:
The T2Ex or the T2In protocols were also used with the addition of aprotinin (T2Ex-A and T2In-A) respectively. For the intrinsic pathway measurement (T2In), intrinsic activator solution was prepared by mixing ellagic acid stock and CaCl2. For the intrinsic pathway measurement that includes aprotinin (T2In-A), add 41.7 μL of a 1 mg/mL stock of aprotinin to 1 mL intrinsic activator solution. 36.7 μL citrated whole blood that had been warmed to approximately 37° C. for three minutes was added and mixed. 5 μL of intrinsic activator solution with aprotinin that had been warmed to approximately 37° C. for one minute was added. The sample was mixed and read in the T2reader. The clotting time measurement was obtained after 5 minutes and then the platelet activity and fibrinolysis measurements were obtained over the following 60 minutes. In a separate assay the effects of the amounts of activator were tested.
Platelet activity and fibrinolysis measurements for the 3 donor samples in the T2In assay are shown in FIG. 15a-15b. tPA levels of 0 nM, 2 nM or 4 nM were added to citrated whole blood. Blood samples (36.7 μL) were activated by addition of 5 μL ellagic acid solution with CaCl2. T2MR data was collected for 65 min. The addition of tPA cleaves the fibrin mesh of the clot and results in clot dissolution over time. This is detected by T2MR by the change in T2 value of the serum peak (third phase). […]

Experiment [3] relates to reconstituted blood samples. The experiment in a line: T2MR % deltaT2 fibrinogen measurement, reconstituted blood activated with ellagic acid. Format: cell-based, human. An excerpt:
The T2MR based hemostasis assays described herein can be used to discriminate normal from abnormal patient samples for fibrinogen measurements using either an extrinsic or intrinsic pathway activation. […] Citrated whole blood from normal donors was centrifuged and […] removed. Packed red blood cells were washed with fibrinogen depleted plasma. Fibrinogen depleted plasma was spiked with known amounts of fibrinogen; these spiked plasmas were used to reconstitute washed red blood cells to produce blood samples with varying fibrinogen levels. Blood samples were activated with ellagic acid activator solution and clot time and % deltaT2 were measured. Fibrinogen levels in each sample were determined by the Clauss method. […] Low fibrinogen (120 mg/dL) gave an average % deltaT2 of 4, normal level fibrinogen (343 mg/dL) gave an average % deltaT2 of 8.3 and high fibrinogen (583 mg/dL) gave an average % deltaT2 of 10.7.

Another experiment relates to citrated plasma. In words: T2MR PT clotting time in samples from donors on Coumadin therapy. Format: in vivo, human. As for the experimental part:
All samples were sourced from the coagulation laboratory at a local hospital. Lab protocol was to collect discarded citrated blood samples (venous draw, 1 mL minimum) from patients on Coumadin therapy with both normal and abnormal PT values. Citrated blood samples were stored at RT and within 4-5 hours of the draw time samples were spun down at 1500×g for 15 min to prepare plasma. Plasma samples were stored frozen at −70° C.
For citrated plasma, a tissue factor reagent was prepared by reconstituting the lyophilized Dade® Innovin® (tissue factor) reagent. Citrated plasma (13 μL) was mixed with 27 μL of tissue factor reagent. All reagents and disposables were adequately pre-heated. T2 values were collected with a 1 second dwell time and used to collect the T2 values as a function of time. The T2 vs. time data were collected for 120 successive measurements and fit with a five-parameter logistic fit to calculate the EC50, from which the clotting time was derived. A method comparison against the Stago ST4 system and a precision study was completed with 22 samples from normal donors not on anti-coagulant medications and 50 samples from donors on Coumadin. […] INR (international normalized ratio, a normalized PT value) values were calculated from a pool of normal healthy donors. […] This corresponds to a clotting time value that is prolonged compared to standard therapeutic ranges.

The test system of another experiment is platelet aggregation. In words: Platelet aggregation by whole blood aggregometry (WBA) or light transmission aggregometry (LTA). The note with it: titration of CCD. Format: cell-based, human.
Experiment [4] concerns citrated whole blood. The experiment in a line: T2Ex T2MR clotting time, extrinsic pathway activator (tissue factor). Format: cell-based, human. An excerpt:
In one embodiment a panel is used with an extrinsic activator such as tissue factor. The clotting time T2MR measurement for normal blood can be 30-40 seconds. It can also be 8-12 seconds, 10-20 seconds, 10-40 seconds, 30-40 seconds, 30-50 seconds, 40-60 seconds, 50-60 seconds or 20-60 seconds. The international normalized ratio for normal blood can then be 0.8-1.2, or 0.87-1.13. The abnormal range of T2MR measurement of clotting time is above or below the normal range. The total range easily measured is 8-300 seconds though a measurement up to or beyond 1000 seconds could be performed with modified acquisition. If aprotinin is added in addition to tissue factor, in normal blood the clotting time is often between 27.9 and 41.6 seconds.
The general extrinsic activator protocol was as follows (T2Ex panel): an extrinsic activator solution was prepared by mixing tissue factor reagent with CaCl2. […]
The T2Ex or the T2In protocols were also used with the addition of aprotinin (T2Ex-A and T2In-A) respectively. […] The sample was mixed and read in the T2reader. […]
Rivaroxaban was spiked into citrated blood from normal donors at increasing levels. Aliquots of spiked blood were activated with tissue factor activator solution and clot times determined by T2MR. […]

The test system of experiment [5] is plasma. The experiment in a line: STAGO plasma prothrombin time (PT). Format: biochemical, human. As to conditions: rivaroxaban spiked samples, three donors. As for the experimental part: Samples from three donors were provided. Rivaroxaban spiked citrated whole blood samples were used to generate a range of clotting time measurements. An extrinsic pathway activator, such as tissue factor, was added. The T2MR clotting time (CT) range used was 32-259 seconds, and the STAGO plasma prothrombin time (PT) range was 11-47 seconds. Five replicate T2MR measurements were taken for each clotting time.

Experiment [6] relates to plasma. The experiment in a line: STAGO aPTT. As to conditions: rivaroxaban spiked samples, six donors. Format: biochemical, human. As for the experimental part:
Citrated whole blood samples from six donors were provided and spiked with rivaroxaban to generate a range of clotting times. An activator of the intrinsic coagulation pathway, (e.g. ellagic acid), was added. T2MR clotting time range was between 73-202 seconds, and the STAGO aPTT range was between 29-86 seconds. Five replicate T2MR measurements were taken for each clotting time. The specification desired was between 0.7-5% CV with 100-200 seconds of clotting time and a detection range of 60-450 seconds.

As for aprotinin, in the experiment with citrated whole blood [1] (T2In, 3 donors, different tPA concentrations, with or without aprotinin), the “clotting time curves (% deltaT2)” value was “appear to overlay”. In the experiment with citrated whole blood [1] (aprotinin added in addition to intrinsic activator, normal blood), the clotting times lay within 110.9 to 151.0 s. In addition, in the experiment with citrated whole blood [2], the “change in T2 value of the serum peak (third phase)” value is recorded as “no detected change”.

As to fibrinogen, the “average % deltaT2” value in experiment [3] (high fibrinogen 583 mg/dL) stood at 10.7; in experiment [3] (low fibrinogen 120 mg/dL) it was 4; in experiment [3] (normal level fibrinogen 343 mg/dL), 8.3.

With `CC(=O)CC(c1ccccc1)c1c(O)c2ccccc2oc1=O` (centres unmarked) [Coumadin, warfarin], the “clotting times versus normal donors not on therapy” value in the experiment on citrated plasma (citrated plasma, citrated blood and fresh whole blood) is “prolonged clotting times”. Also, the INR worked out at 5.3 in the experiment with citrated plasma (patient on Coumadin, hypocoagulable state) and 0.8 with citrated plasma (patient undergoing Coumadin therapy but hypercoagulable). The T2MR clotting time in the experiment on citrated plasma (patient on Coumadin, hypocoagulable state, citrated plasma, tissue factor reagent) was 51.3 s; in the experiment with citrated plasma (patient undergoing Coumadin therapy but hypercoagulable, citrated plasma), 8.4 s.

For `C=C1[C@@H](C)[C@H]2[C@H](Cc3ccccc3)NC(=O)[C@]23[C@H](OC(C)=O)/C=C/[C@@](C)(O)C(=O)[C@@H](C)C/C=C/[C@H]3[C@@H]1O` [CCD, cytochalasin D], in the experiment on platelet aggregation, the “effect on platelet aggregation” value was “no reproducible effect”.

Consider `O=C(NC[C@H]1CN(c2ccc(N3CCOCC3=O)cc2)C(=O)O1)c1ccc(Cl)s1` [rivaroxaban], for which the “extension of clot times” value in the experiment with citrated whole blood [4] (800 ng/mL spiked into citrated blood from normal donors, tissue factor activator solution) is listed as “approximately 80%”. Also, the “T2MR clotting time (CT) range” value with citrated whole blood [4] (rivaroxaban spiked citrated whole blood, three donors, range over spiked samples (Example 12)) lay in the range of 32 to 259 s. Further, the “STAGO plasma prothrombin time (PT) range” value in the experiment with plasma [5] was 11 to 47 s. Besides, the “T2MR clotting time range” value in the experiment on citrated whole blood [1] (rivaroxaban spiked citrated whole blood, six donors) is 73 to 202 s. Also, the “STAGO aPTT range” value in the experiment on plasma [6] lay within 29 to 86 s.
